According to patent US20220080015A1, “METHOD OF PREVENTING AND TREATING NEURODEGENERATIVE DISORDERS USING SOPHORA JAPONICA L. EXTRACT AS ACTIVE INGREDIENT” (UNIVERSITY-INDUSTRY COOPERATION GROUP OF KYUNG HEE …, priority 2016, published 2022):

Tested on: Alzheimer's disease-induced mouse model (amyloid beta1-42 peptide-infused mouse model)
Assay: Morris water maze test (memory test)
Format: in vivo, C57BL/6 mouse
Details: Aβ-infused mice + donepezil 1 mg/kg (positive control); platform removed, 60 seconds free swimming; average ± S.E.M.
Procedure: Specifically, the following experiment was carried out by applying a conventional Morris method. First, a mouse was transferred to a behavior observation chamber and stabilized one hour before the initiation of the experiment. The maze dimension includes a diameter of 90 cm and a height of 32.5 cm, and the diameter of a white platform is 5 cm. In the periphery of the underwater maze, spatial cues such as a computer system connected with a video camera and a device for controlling a water temperature were always regularly maintained. Afterward, the maze was filled with water so that the platform is installed 1 cm below the water level, such that a mouse cannot see the platform. The maze was divided into quadrants using four markers, the quadrants were classified as northeast (NE), northwest (NW), southeast (SE), and southwest (SW), and the platform was installed in one quadrant of the maze. […] On the sixth day, the platform was removed from the maze, and then the residence time of a mouse in the quadrant in which the platform was placed was measured. On the final day […] of the Morris water maze test, to perform a memory test, the platform was removed, free swimming was allowed for 60 seconds, and the residence time of a mouse in the quadrant in which the platform was placed was measured in percentage using a Smart program.

COc1cc2c(cc1OC)C(=O)C(CC1CCN(Cc3ccccc3)CC1)C2 (stereo not shown) [donepezil]
Residence time in quadrant (%): 59.222±2.918%
